In ChEMBL document CHEMBL5120980, “Stereoisomers of an Aryl Pyrazole Glucocorticoid Receptor Agonist Scaffold Elicit Differing Anti-inflammatory Responses” (ACS Med Chem Lett, 2022):

Columns and labels:
[1] = biological target: T1, Glucocorticoid receptor (Rattus norvegicus, UniProt P06536); assay: Agonist activity at glucocorticoid receptor in rat INS-1 832/13 cells transfected with 3XGRE-promoter luciferase plasmid construct assessed as induction of receptor transactivation by luciferase reporter gene assay; type: cell-based
T1 sequence (P06536 whole entry): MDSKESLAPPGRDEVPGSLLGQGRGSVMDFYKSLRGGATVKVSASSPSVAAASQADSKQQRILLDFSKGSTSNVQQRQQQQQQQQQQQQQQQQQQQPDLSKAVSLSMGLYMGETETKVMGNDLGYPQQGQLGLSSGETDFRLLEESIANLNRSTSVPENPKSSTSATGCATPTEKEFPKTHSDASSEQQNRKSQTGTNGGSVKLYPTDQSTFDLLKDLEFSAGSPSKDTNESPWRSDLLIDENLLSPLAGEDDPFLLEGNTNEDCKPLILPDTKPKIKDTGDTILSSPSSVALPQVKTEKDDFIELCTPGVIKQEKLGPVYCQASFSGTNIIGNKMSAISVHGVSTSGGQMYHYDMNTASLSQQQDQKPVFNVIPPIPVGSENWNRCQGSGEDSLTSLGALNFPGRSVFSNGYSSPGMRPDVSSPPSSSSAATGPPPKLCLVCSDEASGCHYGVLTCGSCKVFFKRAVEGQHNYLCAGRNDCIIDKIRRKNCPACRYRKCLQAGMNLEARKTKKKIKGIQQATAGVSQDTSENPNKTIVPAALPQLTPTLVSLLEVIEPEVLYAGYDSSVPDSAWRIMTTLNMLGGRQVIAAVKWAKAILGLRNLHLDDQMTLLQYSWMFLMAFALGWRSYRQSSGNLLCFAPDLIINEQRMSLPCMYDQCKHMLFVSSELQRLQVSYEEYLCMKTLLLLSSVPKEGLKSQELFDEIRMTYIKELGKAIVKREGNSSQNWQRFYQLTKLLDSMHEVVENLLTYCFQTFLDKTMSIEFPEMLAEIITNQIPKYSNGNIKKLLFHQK

[2] = biological target: T1, Glucocorticoid receptor; assay: Agonist activity at glucocorticoid receptor in rat INS-1 832/13 cells transfected with CCL2-promoter luciferase plasmid construct assessed as reduction in IL-1 beta induced inflammation by luciferase reporter gene assay; type: cell-based

SMILES | EC50 [1] | IC50 [2]
C[C@]12Cc3cnn(-c4ccc(F)cc4)c3C=C1CCC[C@@H]2[C@@H](O)c1c(F)c(F)c(F)c(F)c1F | 251 nM | 31.6 nM
C[C@]12Cc3cnn(-c4ccc(F)cc4)c3C=C1CCC[C@@H]2[C@@H](O)C1CCCC1 | 3160 nM | 398 nM
CC(C)[C@H](O)[C@H]1CCCC2=Cc3c(cnn3-c3ccc(F)cc3)C[C@@]21C | 1580 nM | 0.631 nM
CC[C@H](O)[C@H]1CCCC2=Cc3c(cnn3-c3ccc(F)cc3)C[C@@]21C | 10000 nM | 20 nM
C[C@]12Cc3cnn(-c4ccc(F)cc4)c3C=C1CCC[C@@H]2[C@@H](O)C1CC1 | 1000 nM | 31.6 nM
CC[C@@H](O)[C@H]1CCCC2=Cc3c(cnn3-c3ccc(F)cc3)C[C@@]21C | 2510 nM | 15.8 nM
CC(C)[C@@H](O)[C@H]1CCCC2=Cc3c(cnn3-c3ccc(F)cc3)C[C@@]21C | 1580 nM | 158 nM
C[C@]12Cc3cnn(-c4ccc(F)cc4)c3C=C1CCC[C@@H]2[C@H](O)c1c(F)c(F)c(F)c(F)c1F | 2000 nM | 25.1 nM
C[C@H](O)[C@H]1CCCC2=Cc3c(cnn3-c3ccc(F)cc3)C[C@@]21C | 2510 nM | 63.1 nM

Compounds with a lower EC50 [1], results first:

EC50 [1] | IC50 [2] | SMILES
31.6 nM | 0.316 nM | C[C@@H](O)[C@H]1CCCC2=Cc3c(cnn3-c3ccc(F)cc3)C[C@@]21C
25.1 nM | 3980 nM | C[C@]12Cc3cnn(-c4ccc(F)cc4)c3C=C1CCC[C@@H]2[C@H](O)c1ccccc1
31.6 nM | 5.01 nM | C[C@]12Cc3cnn(-c4ccc(F)cc4)c3C=C1CCC[C@@H]2CO
0.501 nM | 2000 nM | C[C@]12Cc3cnn(-c4ccc(F)cc4)c3C=C1CCC[C@@H]2[C@H](O)C1CC1
63.1 nM | 20 nM | C[C@]12Cc3cnn(-c4ccc(F)cc4)c3C=C1CCC[C@@H]2[C@@H](O)c1ccccc1
